Measured values as given in US20040087606A1, “Shivering suppression during cooling to lower body temperature” (priority 2002, published 2004).
Where “and” joins values, the source holds several entries; their conditions need not be identical. Identical values can stand only once.

Tests used:
Assay type in all cases: in vivo, human
[1] = system: healthy subjects; assay: Phase 4: as Phase 3a, meperidine plus oral buspirone
Procedure: (§1) Five contact pads are applied to the thighs, back and abdomen of each subjects, and actively cooled. Temperatures are measured in the same manner as in Phase 1 except that the rectal temperature probe is connected to a control module and the rectal temperature signal is used by the control module to adjust inlet water temperature via a feedback control algorithm to achieve a target core body temperature of 34.5° C.
(§2) A single oral dose of acetaminophen (1000 mg), is administered within 20 minutes prior to treatment. A bolus of IV meperidine (Demerol®, 50-100 mg) is given within 5 minutes of the start of active cooling. Additional doses of meperidine are administered to maintain comfort and to prevent shivering. Active cooling and maintenance of hypothermia continues for five hours. As in the Phase 1, the subjects are actively re-warmed to a tympanic temperature of 36° C. prior to termination of the experiment. Shivering, comfort, oxyhemoglobin saturation, and arterial blood pressure are recorded as in Phase 1.
Phase 4 proceeds as described for Phase 3a, except as noted. In addition to meperidine (Demerol®), subjects are also given an oral dose of 30-60 mg buspirone.

[2] = system: healthy subjects; assay: Phase 5: as Phase 3a, meperidine plus IV ondansetron
Procedure: as §1, §2
Phase 5 proceeds as described for Phase 3a, except as noted. The temperature of water circulated to the contact pads is controlled to achieve a target core body temperature of 34.5° C. In addition to meperidine (Demerol®), subjects are also given an IV dose of 8 mg ondansetron (hydrochloride salt, Glaxo Wellcome).

[3] = system: healthy subjects; assay: Phases 1 and 3a taken together: haemodynamics, comfort, respiratory compromise, nausea
Procedure: (§3) Four contact pads are applied to the thighs and chest of each subject and each subject is rapidly cooled with an objective of reducing core body temperature to 34-35° C. Core body temperatures are measured at the tympanic membrane and the rectum. Mean skin-surface temperature is determined from the weighted average of calf, thigh, chest, and upper arm skin temperatures. Thermoregulatory vasoconstriction is evaluated using forearm minus fingertip skin-temperature gradients. Temperatures are measured using Mon-a-Therm™ themocouple probes connected to Mallinckrodt Model 6510 two-channel electronic thermometers having an accuracy near 0.1° C. (Mallinckrodt Anesthesia Products, St. Louis, Mo., U.S.A.). Temperatures are recorded before cooling is started (i.e., baseline) and subsequently at 15-minute intervals.
(§4) Each of subjects 1-5 is administered a single dose of acetomiophen (1000 mg) within 20 minutes prior to treatment and is administered a bolus of intravenous (IV) meperidine (Demerol®, 25-75 mg) within 5 minutes of the start of cooling. Subjects also receive initial doses of chlorpromazine (Thorazine®12.5-25 mg, IV). Active cooling is initiated and the inlet water temperature is controlled to achieve a target tympanic temperature between 34° C. and 35° C. Additional doses of meperidine and/or chloropromazine are administered to maintain comfort and to prevent shivering. Active cooling and maintenance of hypothermia continues for up to five hours, after which subjects are actively re-warmed to a tympanic temperature of 36° C.
(§5) The presence of shivering is noted by physical examination, electromyographic artifact on continuous electrocardiography (ECG), or by subject report. Overall thermal comfort is evaluated at 15-min intervals with a 100-mm-long visual analog scale (VAS) on which 0 mm defines the worst imaginable cold, 50 mm identifies thermal neutrality, and 100 mm indicates unbearable heat. A new, unmarked scale is used for each assessment. Heart rate and oxyhemoglobin saturation are monitored using ECG and pulse oximetry; arterial blood pressure is recorded oscillometrically at 15-minute intervals.
as §1, §2

[4] = system: healthy subjects; assay: Phase 3a: contact-pad cooling to target core temperature 34.5° C. with meperidine
From the text: (§6) Mild hypothermia is induced and maintained in healthy subjects for up to several hours. Each volunteer is cooled using contact pads (Arctic Sun Energy Transfer Pads™, Medivance, Inc., Louisville, Colo., U.S.A.). Contact pads are applied to contact the subjects, and water at a controlled temperature is delivered to and circulated through the contact pads to effect the controlled cooling of each volunteer.
as §1, §2

[5] = system: healthy subjects; assay: Phase 1: induced mild hypothermia by contact-pad cooling with meperidine for shivering suppression
From the text: as §6, §3, §4, §5

[6] = Phase 4, individual subjects, meperidine plus oral buspirone 30-60 mg
[7] = Phase 4, mean ± SD, 4 subjects, meperidine plus buspirone
[8] = Phase 5, individual subjects, meperidine plus IV ondansetron 8 mg
[9] = Phase 5, mean ± SD, 4 subjects, meperidine plus ondansetron
[10] = individual subjects, meperidine

In the case of `O=C1CC2(CCCC2)CC(=O)N1CCCCN1CCN(c2ncccn2)CC1` [buspirone], the “Effect on incidence of nausea” value ([1]; in vivo) is reported as “did not reduce the incidence of nausea”.
`CCOC(=O)C1(c2ccccc2)CCN(C)CC1` [meperidine] was tested, and the “Cooling rate to 35° C.” value [1, 6] was 1.1 ° C./hr (2×) and 1.9 ° C./hr and 0.8 ° C./hr, the “Nausea or Vomiting During Treatment” value [1, 6] was “Nausea early, and Vomiting end and None and Nausea mid and Nausea end” and the “Time to 35° C.” value [1, 6] was 105 min and 95 min and 63 min and 158 min. The “Total Meperidine Dose” value ([1]; Phase 4, individual subjects, with oral buspirone 30-60 mg) was 250 mg (3×) and 400 mg, the “Mean cooling rate to 35° C.” value [1, 7] was 1.2 ± .5 ° C./hr and the “Mean time to 35° C.” value [1, 7] was 105 ± 39 min. The “Mean total meperidine dose” value ([1]; Phase 4, mean ± SD, 4 subjects, with buspirone) was 288 ± 75 mg, the “Attainment of mild hypothermia” value ([2]; Phase 5) was “attained in all subjects” and the “Cooling rate to 35° C.” value [2, 8] was 1.5 ° C./hr and 1.4 ° C./hr and 1.6 ° C./hr and 1.9 ° C./hr. The “Nausea or Vomiting During Treatment” value [2, 8] was “None (2×) and Nausea post and Nausea and vomiting”, the “Time to 35° C.” value [2, 8] was 80 min and 58 min and 88 min and 60 min and the “Total Meperidine Dose” value ([2]; Phase 5, individual subjects, with IV ondansetron 8 mg) was 275 mg and 250 mg and 325 mg and 375 mg. For the same compound, the “Mean cooling rate to 35° C.” value [2, 9] was 1.6 ° C./hr and 1.6 ± .2 ° C./hr, the “Mean time to reach a tympanic temperature of 35.0° C.” value [2, 9] was 72 ± 15 min and the “Mean total dosage of meperidine” value ([2]; Phase 5, mean ± SD, 4 subjects, with ondansetron) was 306 ± 55 mg. The “Withdrawal of a subject for adverse reaction to meperidine” value ([2]; Phase 5, one of five enrolled, caused a facial rash) was “mild allergic reaction”, the Systolic blood pressure ([3]; 180 min timepoint, baseline 122±13, p=0.042) was 140±20 mm Hg and the Respiratory compromise ([3]; Phases 1 and 3a) was “no respiratory compromise is observed”. The “Subjects in whom nausea is observed” value ([3]; Phases 1 and 3a, all cases in Phase 3a) was 30%, the “Change in blood oxygenation compared with baseline” value ([3]; all subjects, during cooling) was “no statistically significant change” and the “Change in diastolic blood pressure compared with baseline” value ([3]; all subjects, during cooling) was “no statistically significant change”. The “Change in heart rate compared with baseline” value ([3]; all subjects, during cooling) was “no statistically significant change”, the “Total Meperidine Dose” value ([4]; individual subjects, as needed to maintain comfort and prevent shivering, five hours) was 400 mg and 500 mg and 350 mg (2×) and 250 mg and the “Cooling rate to 35° C.” value [4, 10] was 1.9 ° C./hr and .9 ° C./hr and 1.2 ° C./hr and 1.7 ° C./hr and 1.4 ° C./hr. The “Nausea or Vomiting During Treatment” value [4, 10] was “Nausea end (2×) and None and Nausea early, and Nausea, and vomiting mid”, the “Time to 35° C.” value ([4]; individual subjects, tympanic temperature, IV meperidine 50-100 mg bolus plus additional doses, acetaminophen 1000 mg) was 64 min and 180 min and 95 min and 56 min and 53 min and the “Mean cooling rate to 35° C.” value ([4]; mean ± SD, 5 subjects) was 1.4±0.4 ° C./hr and 1.4 ± .4 ° C./hr. The “Mean time to reach a tympanic temperature of 35° C.” value ([4]; mean ± SD, 5 subjects) was 90 ± 53 min, the “Mean total dosage of meperidine” value ([4]; mean ± SD, 5 subjects) was 370 ± 91 mg and 370 mg and the “Attainment of mild hypothermia” value ([5]; Phase 1) was “attained in all subjects”. The “Total Meperidine Dose” value ([5]; Phase 1, individual subjects, given as needed to maintain comfort and prevent shivering, up to five hours) was 275 mg and 375 mg and 475 mg and 75 mg and 200 mg, the “Nausea or Vomiting During Treatment” value ([5]; Phase 1, individual subjects, meperidine) was “Pruritis and None (4×)” and the “Cooling rate to 35° C.” value ([5]; Phase 1, individual subjects, meperidine for shivering suppression) was 1.4 ° C./hr and 1.0 ° C./hr and 1.5 ° C./hr and 2.6 ° C./hr and 1.2 ° C./hr. The “Time to 35° C.” value ([5]; Phase 1, individual subjects, tympanic temperature, IV meperidine 25-75 mg bolus plus additional doses, acetaminophen 1000 mg, chlorpromazine in subjects 1 and 2) was 81 min and 105 min and 78 min and 41 min and 82 min, the “Mean cooling rate to 35° C.” value ([5]; Phase 1, mean ± SD, 5 subjects) was 1.5±0.6 ° C./hr and 1.5 ± .6 ° C./hr and the “Mean time to reach a tympanic temperature of 35° C.” value ([5]; Phase 1, mean ± SD, 5 subjects) was 77+23 min and 77 ± 23 min. For the same compound, the “Mean total dosage of meperidine” value ([5]; Phase 1, mean ± SD, 5 subjects) was 280 ± 155 mg and 280 mg.
With `Cc1nccn1CC1CCc2c(c3ccccc3n2C)C1=O` (stereo not drawn) [ondansetron] the “Meperidine administration in Phase 5 relative to Phase 3a” value ([2]; p=0.26, t-test, ondansetron 8 mg IV) was “trend toward less meperidine administration”.
